Experiments:
[1] = In vivo pharmacokinetics, serum TRP by ELISA; settings: osteoporotic mice
Procedure: The pharmacokinetics and pharmacodynamics of M@P@T NPs were evaluated using the osteoporosis mice model. Mice were randomly divided into three experimental groups, with five mice per group: TRP SC, M@P, and M@P@T. M@P NPs (200 μg kg^−1) and M@P@T NPs (200 μg kg^−1) were administered by oral gavage, while TRP (20 μg kg^−1) was injected subcutaneously. Serum TRP concentrations were measured using an ELISA kit. Blood samples were collected at 0, 0.5, 1, 1.5, 2, 3, 6, 8, and 12 h post-administration to determine TRP concentration. The area under the serum TRP concentration−time curve (AUC) was calculated to determine the relative bioavailability of M@P@T. The pharmacokinetic parameters of M@P@T were then compared to those of TRP SC and M@P groups.

[2] = test system: osteoporosis model mice (OVX); test: New bone formation in vivo, micro-CT of femurs; settings: one month, M@P@T 200 μg kg^−1 oral, TRP 20 μg kg^−1 SC daily
Procedure: This study was approved by the Animal Ethics Committee of Wuhan University (ethics number WP20230395), and all animal experiments were conducted in accordance with the Regulations on the Management of Experimental Animals in China and the guidelines of the Committee for Animal Care and Use at Wuhan University. In this study, 6-week-old female C57 mice (purchased from Beijing HFK Bioscience Co., Ltd.) were randomly divided into five groups (Sham, OVX, M@P, M@P@T, and TRP SC). Bilateral ovariectomy was performed via a dorsal incision to establish an osteoporosis model. In the Sham group, the same volume of fat tissue was removed bilaterally. After surgery, the mice were regularly given penicillin and pain medication. All mice were housed in a comfortable environment at 22–25 °C and […] and had free access to food and water. The successful construction of the osteoporosis model was confirmed two months after surgery via micro–computed tomography (micro-CT).
To validate the in vivo efficacy of the NPs, we measured various bone parameters related to the formation of new bone and its internal structure using micro-CT (SkyScan 1276) following the ASBMR reporting standards. […] The efficacy of new bone formation was assessed by comparing these parameters determined from the control and treatment groups.

Q: What does the source list for `CC[C@H](C)[C@H](NC(=O)[C@H](CCC(=O)O)NC(=O)[C@H](CO)NC(=O)[C@@H](NC(=O)[C@@H](N)CO)C(C)C)C(=O)N[C@@H](CCC(N)=O)C(=O)N[C@@H](CC(C)C)C(=O)N[C@@H](CCSC)C(=O)N[C@@H](Cc1cnc[nH]1)C(=O)N[C@@H](CC(N)=O)C(=O)N[C@@H](CC(C)C)C(=O)NCC(=O)N[C@@H](CCCCN)C(=O)N[C@@H](Cc1cnc[nH]1)C(=O)N[C@@H](CC(C)C)C(=O)N[C@@H](CC(N)=O)C(=O)N[C@@H](CO)C(=O)N[C@@H](CCSC)C(=O)N[C@@H](CCC(=O)O)C(=O)N[C@@H](CCCN=C(N)N)C(=O)N[C@H](C(=O)N[C@@H](CCC(=O)O)C(=O)N[C@@H](Cc1c[nH]c2ccccc12)C(=O)N[C@@H](CC(C)C)C(=O)N[C@@H](CCCN=C(N)N)C(=O)N[C@@H](CCCCN)C(=O)N[C@@H](CCCCN)C(=O)N[C@@H](CC(C)C)C(=O)N[C@@H](CCC(N)=O)C(=O)N[C@@H](CC(=O)O)C(=O)N[C@H](C(=O)N[C@@H](Cc1cnc[nH]1)C(=O)N[C@@H](CC(N)=O)C(=O)N[C@@H](Cc1ccccc1)C(=O)O)C(C)C)C(C)C` [TRP, teriparatide]?
A: time to return to the baseline level ([1]; 20 μg kg^−1 SC): ≤ 2 h; Tmax ([1]; mouse, in vivo, 20 ug/kg, 20 μg kg^−1 SC, read-out: time of peak plasma concentration of TRP): 30 min; AUC(0-t) ([1]; mouse, sc, 20 ug/kg, n = 5, TRP 20 µg/kg s.c., M@P and M@P@T 200 µg/kg oral, serum TRP ELISA, 0-12 h, mean ± SD): 0.117 ± 0.0112 ng·h/mL; F, relative bioavailability ([1]; n = 5, relative to TRP 20 µg/kg s.c., oral 200 µg/kg): 100%; new bone formation (3D reconstruction) [2]: more new bone formation than the other groups

From article PMC12481929, “Oral delivery of teriparatide utilizing biocompatible transferrin-engineered MOF nanoparticles for osteoporosis therapy” (Materials Today Bio, 2025)
